Source: patent US20110251379A1, “COMPOUNDS USEFUL FOR TREATING NEURODEGENERATIVE DISORDERS” (Satori Pharmaceuticals, Inc., priority 2010, published 2011)
Where two headings read alike, the source gives them in different places.

How the values were obtained:
Type in all cases: cell-based
Aβ-42 = assay: MSD Human (6E10) Ab 3-PLEX elisa, conditioned media of 2B7 cells: Aβ-42; settings: Homo sapiens; for inhibition at 20 µM: Aβ-42, 20 μM; for IC50: Aβ-42 (superscript c)
Experimental: (§1) Assays were conducted to determine the ability of a Compound of Formula I to modulate […], and Aβ-38.
(§2) Plates with capture antibodies were blocked for 1-2 hours at room temperature with 150 μL of the manufactures blocking reagent.
(§3) Conditioned Media: • Cultured 2B7 cells in 96 well plate with 250 uL of media per well until confluent; • Prepared serial dilutions of compounds in DMSO at 100× the final desired concentration; • Washed wells with 2B7 cells 1× with 250 uL of media; • Diluted DMSO stocks 1:100 into media: • Added 250 μL of media containing compounds (1% DMSO) to wells with 2B7 cells for 5 hours at 37° C.
(§4) Elisa Sample Prep: • Diluted conditioned media: 1 part media with 1% DMSO and 1 part blocking buffer; • 150 μL of the 250 μL of conditioned media were used.
(§5) […] CURVE SAMPLE PREP: Prepared per manufacturer's protocol (see above) • Seven point standard curve samples were prepared that contained Aβ-42, Aβ-40, and Aβ-38. The highest concentration of Aβ-42 and Aβ-3-38 was 3,000 pg/mL and the highest concentration of Aβ-40 was 10,000 pg/mL. Subsequent serial dilutions were 1:3 and the final composition of each sample was 1 part blocking buffer and 1 part cell medium containing 1% DMSO.
(§6) Overnight Sample Incubation: • Blocked plates are washed 5× with MSD wash buffer with a plate washer • 25 uL of detection antibody and blocker G reagent in MSD blocking solution is added • 25 uL of samples (1 part conditioned media containing 1% DMSO and 1 part MSD blocking buffer) are then added. • plates are incubated overnight at 4 degrees C. or 2 hours at room temp
(§7) Final Wash and Readout: • Wash wells 5× with MSD wash buffer • Added 150 μL 2×MSD read buffer • Read with MSD imager.
(§8) A-Beta peptide levels for each peptide are calculated from the standard curve using the MSD software provided with the MSD 2400 Imager. Percent vehicle values for each compound dosage were then calculated and fit to a 4 parameter curve generating IC50 values.

Aβ-40 = assay: MSD Human (6E10) Ab 3-PLEX elisa, conditioned media of 2B7 cells: Aβ-40; settings: Homo sapiens; for inhibition at 20 µM: Aβ-40, 20 μM; for IC50: Aβ-40 (superscript b)
Experimental: as §1, §2, §3, §4, §5, §6, §7, §8

Aβ-38 = assay: MSD Human (6E10) Ab 3-PLEX elisa, conditioned media of 2B7 cells: Aβ-38; settings: Homo sapiens; for IC50: Aβ-38 (superscript a)
Experimental: as §1, §2, §3, §4, §5, §6, §7, §8

C[C@@H]1CC([C@H](OC(=O)C2CCOCC2)C(C)(C)O)OC2[C@H]1[C@@]1(C)CC[C@@]34C[C@@]35CC[C@H](O)C(C)(C)[C@@H]5CCC4[C@]1(C)[C@H]2O (stereo partly shown)
inhibition at 20 µM (Aβ-42): 25 to 75% | inhibition at 20 µM (Aβ-40): 25 to 75% | IC50 (Aβ-38; read-out: 50% reduction value): 1000 to 10000 nM

CCO[C@@H]([C@H]1C[C@@H](C)[C@H]2[C@H](O1)[C@H](O)[C@@]1(C)[C@@H]3CC[C@H]4C(C)(C)[C@@H](OC(=O)NC5CN(C)C5)CC[C@@]45C[C@@]35CC[C@]21C)C(C)(C)O
IC50 (Aβ-42; read-out: 50% reduction value): < 1000 nM | IC50 (Aβ-42; read-out: IC50 range): < 1000 nM | IC50 (Aβ-40; read-out: 50% reduction value): < 1000 nM | IC50 (Aβ-40; read-out: IC50 range): 1000 to 10000 nM | IC50 (Aβ-38; read-out: 50% reduction value): < 1000 nM | IC50 (Aβ-38; read-out: IC50 range): < 1000 nM

C[C@@H]1CC(CN2CCC[C@@H]2C(=O)O)OC2[C@H]1[C@@]1(C)CC[C@@]34C[C@@]35CC[C@H](O[C@H]3CN(C(=O)CC6CC6)CCO3)C(C)(C)[C@@H]5CCC4[C@]1(C)[C@H]2O (stereo partly shown)
IC50 (Aβ-42; read-out: IC50 range): > 10000 nM | IC50 (Aβ-40; read-out: IC50 range): > 10000 nM | IC50 (Aβ-38; read-out: IC50 range): > 10000 nM

CCO[C@@H]([C@H]1C[C@@H](C)[C@H]2[C@H](O1)[C@H](O)[C@@]1(C)C3CC[C@H]4C(C)(C)C(OC(=O)NC5COC5)CC[C@@]45C[C@@]35CC[C@]21C)C(C)(C)O (stereo partly shown)
IC50 (Aβ-42; read-out: 50% reduction value): < 1000 nM | IC50 (Aβ-42; read-out: IC50 range): < 1000 nM | IC50 (Aβ-40; read-out: 50% reduction value): 1000 to 10000 nM | IC50 (Aβ-38; read-out: 50% reduction value): < 1000 nM

C[C@@H]1CC(C(O)C(C)(C)C)OC2[C@H]1[C@@]1(C)CC[C@@]34C[C@@]35CC[C@H](O)C(C)(C)[C@@H]5CCC4[C@]1(C)[C@H]2O (stereo partly shown)
inhibition at 20 µM (Aβ-42): 25 to 75% | IC50 (Aβ-40; read-out: 50% reduction value): > 10000 nM | IC50 (Aβ-38; read-out: 50% reduction value): 1000 to 10000 nM

CC[S+]([O-])[C@@H](C1C[C@@H](C)[C@H]2C(O1)[C@H](O)[C@@]1(C)C3CC[C@H]4C(C)(C)C(O[C@H]5CN(C6COC6)CCO5)CC[C@@]45C[C@@]35CC[C@]21C)C(C)(C)O (stereo partly shown)
inhibition at 20 µM (Aβ-42): 25 to 75% | inhibition at 20 µM (Aβ-40): 25 to 75% | IC50 (Aβ-38; read-out: 50% reduction value): 1000 to 10000 nM

CC(=O)O[C@@H]([C@H]1C[C@@H](C)[C@H]2[C@H](O1)C(=O)[C@@]1(C)[C@@H]3CC[C@H]4C(C)(C)[C@@H](O[C@H]5CN(CC(N)=O)CCO5)CC[C@@]45C[C@@]35CC[C@]21C)C(C)(C)O [drawing 1202]
inhibition at 20 µM (Aβ-42): 25 to 75% | IC50 (Aβ-40; read-out: 50% reduction value): < 1000 nM | IC50 (Aβ-38; read-out: 50% reduction value): < 1000 nM | IC50 (Aβ-38; read-out: IC50 range): < 1000 nM

C=C(C)CO[C@@H](C1C[C@@H](C)[C@H]2C(O1)[C@H](O)[C@@]1(C)C3CC[C@H]4C(C)(C)C(O)CC[C@@]45C[C@@]35CC[C@]21C)C(C)(C)O (stereo partly shown)
IC50 (Aβ-42; read-out: 50% reduction value): < 1000 nM | IC50 (Aβ-42; read-out: IC50 range): < 1000 nM | IC50 (Aβ-40; read-out: 50% reduction value): 1000 to 10000 nM | IC50 (Aβ-40; read-out: IC50 range): 1000 to 10000 nM | IC50 (Aβ-38; read-out: 50% reduction value): < 1000 nM | IC50 (Aβ-38; read-out: IC50 range): < 1000 nM

C[C@@H]1CC(CNC(C(=O)O)C(F)(F)F)OC2[C@H]1[C@@]1(C)CC[C@@]34C[C@@]35CC[C@H](O[C@H]3CN(C6COC6)CCO3)C(C)(C)[C@@H]5CCC4[C@]1(C)[C@H]2O (stereo partly shown)
inhibition at 20 µM (Aβ-42): 25 to 75% | inhibition at 20 µM (Aβ-40): 25 to 75% | inhibition at 20 µM (Aβ-38; Aβ-38, 20 μM): < 25%

CC(C)[C@@H](OC(=O)N1CCC1)C1C[C@@H](C)[C@H]2C(O1)[C@H](O)[C@@]1(C)C3CC[C@H]4C(C)(C)C(OC(=O)N5CC6(COC6)C5)CC[C@@]45C[C@@]35CC[C@]21C (stereo partly shown)
IC50 (Aβ-42; read-out: 50% reduction value): < 1000 nM | IC50 (Aβ-40; read-out: 50% reduction value): > 10000 nM | IC50 (Aβ-38; read-out: 50% reduction value): < 1000 nM

CNC(=O)OC(C)(C)[C@@H](O)[C@H]1C[C@@H](C)[C@H]2[C@H](O1)[C@H](O)[C@@]1(C)C3CC[C@H]4C(C)(C)[C@@H](O)CC[C@@]45C[C@@]35CC[C@]21C (stereo partly shown)
inhibition at 20 µM (Aβ-42): 25 to 75% | IC50 (Aβ-40; read-out: 50% reduction value): > 10000 nM | IC50 (Aβ-38; read-out: 50% reduction value): 1000 to 10000 nM

CNC(=O)O[C@H](C(C)C)C1C[C@@H](C)[C@H]2C(O1)[C@H](O)[C@@]1(C)C3CC[C@H]4C(C)(C)C(OC(=O)NC5CNC5)CC[C@@]45C[C@@]35CC[C@]21C (stereo partly shown)
IC50 (Aβ-42; read-out: 50% reduction value): < 1000 nM | IC50 (Aβ-42; read-out: IC50 range): < 1000 nM | IC50 (Aβ-40; read-out: 50% reduction value): 1000 to 10000 nM | IC50 (Aβ-38; read-out: 50% reduction value): < 1000 nM

CC(C)[C@@H](OC(=O)C1CCC1)C1C[C@@H](C)[C@H]2C(O1)[C@H](O)[C@@]1(C)[C@@H]3CC[C@H]4C(C)(C)C(O)CC[C@@]45C[C@@]35CC[C@]21C (stereo partly shown)
IC50 (Aβ-42; read-out: 50% reduction value): < 1000 nM | IC50 (Aβ-40; read-out: 50% reduction value): 1000 to 10000 nM | IC50 (Aβ-38; read-out: 50% reduction value): < 1000 nM | IC50 (Aβ-38; read-out: IC50 range): 1000 to 10000 nM

CCNC(=O)O[C@H](C(C)C)C1C[C@@H](C)[C@H]2C(O1)[C@H](O)[C@@]1(C)C3CC[C@H]4C(C)(C)C(OC(N)=O)CC[C@@]45C[C@@]35CC[C@]21C (stereo partly shown)
IC50 (Aβ-42; read-out: 50% reduction value): < 1000 nM | IC50 (Aβ-40; read-out: 50% reduction value): 1000 to 10000 nM | IC50 (Aβ-38; read-out: 50% reduction value): < 1000 nM
